Measurements reported in patent US20250051519A1, “SOLUTION ELECTROSPUN FIBERS, COMPOSITIONS COMPRISING THE SAME AND A PROCESS OF MANUFACTURING THEREOF” (UNIVERSITEIT GENT, priority 2021, published 2025).

Tests used:
[1] = Sink in vitro dissolution test of flubendazole samples in 0.1 M HCl; assay type: physicochemical; conditions: after 10 minutes, sample containing 50 mg flubendazole in 900 ml 0.1 M HCl
Procedure: Samples were filtered through a 0.45 μm PTFE filter, diluted and consequently measured via UV-Vis spectroscopy. Experiments were performed in triplicate.

[2] = In vivo bioavailability study, oral capsules, plasma levels by LC-MS; conditions: dog; analyte Flu in plasma; oral capsule with 200 mg Flu, fasted Beagle dogs, n=5
Procedure: Capsules of a 00 size were filled with either 50 wt % Flu-PEtOx nanofibrous material or with pure crystalline Flu. Each capsule contained 200 mg of Flu. These capsules were administered to beagles in 2 different sessions with at least 8 days in between both sessions. The study was approved by the ethical commission for animal testing at Ghent University. Before the dogs were fed the capsules, a fasting time of 12 hours was set. Using an intravenous catheter in the vena cephalica blood samples of 3 ml were collected at different time intervalls of 0.5, 1, 2, 4, 6, 8, 12, 16, 20 and 24 hours after administration. Plasma samples were stored at −20° C. until analyzed using an LC-MS method.
A […] flubendazole nanofibrous amorphous solid dispersion was obtained by the solution electrospinning of PEtOx and Flu in a formic acid solvent system. The process conditions were a tip to collector distance of 15 cm, a flow rate of 0.12 ml/h and a voltage of 27.5 kV. Note that this high flubendazole loading was only reached when a PEtOx wt % was used which is lower compared to the minimal required polymer concentration for solution electrospinning pure PEtOx, as shown in Example 4. […] Concentrations of Flu and its two metabolites, H-Flu and R-Flu, were monitored.

COC(=O)Nc1nc2cc(C(=O)c3ccc(F)cc3)ccc2[nH]1 [Flu, Flubendazole]
Dissolution rate (10 min) [1]: 0.07 ± 0.03 µg/mL/min
Cmax [2]: 1.2 ± 0.4 ng/mL
Tmax [2]: 1 ± 0.6 h
